Assay results as given in US7070768B2, “Method for imparting artificial tan to human skin” (Allergan, Inc., priority 2003, dated 2006).

Legend:
[1] = test system: human skin; test: Oral bimatoprost tablets in a patient, skin color; format: in vivo; conditions: oral tablet, 2 x 100 mg per dose, 3 doses per day, four months
Source text: A patient began taking bimatoprost as a tablet.

[2] = test system: eyelashes; conditions: Lumigan ophthalmic solution, applied in the FDA approved manner; cited from earlier work

In the case of “cyclopentane N-ethyl heptanamide-5-cis-2-(3α-hydroxy-5-phenyl-1-trans-pentenyl)-3,5-dihydroxy, [bimatoprost, cyclopentane N-ethyl heptanamide-5-cis-2-(3α-hydroxy-5-phenyl-1-trans-pentenyl)-3,5-dihydroxy, [1α,2β,3α,5α]]”, the “skin color after treatment” value [1] is listed as “turned to a dark brown color” and the growth of eyelashes [2] is listed as “effective to increase the growth of eyelashes”.
